Laboratory results as given in patent US10081647B2, “Phosphate substituted quinolizine derivatives useful as HIV integrase inhibitors” (Merck Sharp & Dohme Corp., priority 2015, dated 2018).
pIC50: −log10 of the molar value. Read-outs that look alike come from different tables or passages of the source.

System: HIV-1 (NL4-3 strain)
Assay: Assay for inhibition of HIV replication (MT4-gag-GFP reporter cell line, kinetic assay)
Assay type: cell-based
Details: IP from 4-parameter dose response curve
Description: This assay is useful for assessing the ability of a compound of the present inventiongin to inhibit HIV replication. The assay is a kinetic assay that employs a reporter cell line (MT4-gag-GFP) to quantify the number of new cells infected in each round of replication.
MT4-GFP cells (250,000 cells/ml) are bulk-infected with HIV-1 (NL4-3 strain) at low multiplicity of infection (MOI) in RPMI+10% FBS for 24 hours. Cells are then washed once in RPMI+10% FBS and resuspended in RPMI+0% or 10% or 100% normal human serum (NHS). Test compounds are serial-diluted in DMSO using an ECHO liquid handler. The infected MT4-GFP cells are added to a 384-well poly-D-lysine coated black plate with clear bottom in which the diluted test compounds are placed. The cells are seeded at 8,000 cells per well and the final DMSO concentration is adjusted to 0.4%. The infected cells (Green GFP cells) are then quantified at both 24 and 48 hours post incubation using Acumen eX3. Viral reproductive ratio (R0) is determined using the number of infected cells at 48 hours divided by the number of infected cells at 24 hours. Percent viral growth inhibition is calculated by [1−(R−Rtripledrug)/(RDMSO−Rtripledrug)]*100. Compound potency IP or IC50 can be determined using a 4-parameter dose response curve analysis.

[1] = infected MT4-GFP cells in 100% normal human serum, read-out: WILD TYPE CELL ASSAY Viking IP (100% NHS)
[2] = infected MT4-GFP cells in RPMI + 0% normal human serum, read-out: WILD TYPE CELL ASSAY Viking IP (0% NHS)
[3] = Human immunodeficiency virus 1, NL43, infected MT4-GFP cells in 100% normal human serum, read-out: WILD TYPE CELL ASSAY Viking IP (100% NHS)
[4] = Human immunodeficiency virus 1, NL43, infected MT4-GFP cells in RPMI + 0% normal human serum, read-out: WILD TYPE CELL ASSAY Viking IP (0% NHS)

Row | Compound | pIC50 [1] | pIC50 [2] | pIC50 [3] | pIC50 [4]
1 | CCOP(=O)(CCOCC1(C)C(=O)c2c(O)c(=O)c(C(=O)NCc3ccc(F)cc3F)cn2CC1OC)OCC (centres unmarked) [Compound 32] | 6.37 | 8.12 | – | –
2 | CCOP(=O)(CCOCC1(C)C(=O)c2c(O)c(=O)c(C(=O)NCc3ccc(F)cc3F)cn2CC1OC)OCC (centres unmarked) [Compound 33] | 6.73 | 7.89 | – | –
3 | CCOP(=O)(CCOCC1(C)C(=O)c2c(O)c(=O)c(C(=O)NCc3ccc(F)cc3F)cn2CC1OC)OCC (centres unmarked) [Compound 34] | 6.62 | 8.09 | – | –
4 | CCOP(=O)(CCOCC1(C)C(=O)c2c(O)c(=O)c(C(=O)NCc3ccc(F)cc3F)cn2CC1OC)OCC (centres unmarked) [Compound 35] | 7.07 | 8.46 | – | –
5 | COC1Cn2cc(C(=O)NCc3ccc(F)cc3F)c(=O)c(O)c2C(=O)C1(C)COCCP(=O)(O)O (centres unmarked) [Compound 36] | 5.44 | 6.20 | – | –
6 | COC1Cn2cc(C(=O)NCc3ccc(F)cc3F)c(=O)c(O)c2C(=O)C1(C)COCCP(=O)(O)O (centres unmarked) [Compound 37] | < 5.10 | < 6.00 | – | –
7 | COC1Cn2cc(C(=O)NCc3ccc(F)cc3F)c(=O)c(O)c2C(=O)C1(C)COCCP(=O)(O)O (centres unmarked) [Compound 38] | 5.22 | 6.13 | – | –
8 | COC1Cn2cc(C(=O)NCc3ccc(F)cc3F)c(=O)c(O)c2C(=O)C1(C)COCCP(=O)(O)O (centres unmarked) [Compound 39] | 5.16 | 6.47 | – | –
9 | COC1Cn2cc(C(=O)NCc3ccc(F)cc3F)c(=O)c(O)c2C(=O)C1(C)COCCP(=O)(OCOC(=O)OC(C)C)OCOC(=O)OC(C)C (centres unmarked) [Compound 40] | 6.93 | 9.30 | – | –
10 | COC1Cn2cc(C(=O)NCc3ccc(F)cc3F)c(=O)c(O)c2C(=O)C1(C)COCCP(=O)(OCOC(=O)OC(C)C)OCOC(=O)OC(C)C (centres unmarked) [Compound 41] | < 5.10 | 9.01 | – | –
11 | COC1Cn2cc(C(=O)NCc3ccc(F)cc3F)c(=O)c(O)c2C(=O)C1(C)COCCP(=O)(OCOC(=O)OC(C)C)OCOC(=O)OC(C)C (centres unmarked) [Compound 42] | 6.39 | 8.92 | – | –
12 | COC1Cn2cc(C(=O)NCc3ccc(F)cc3F)c(=O)c(O)c2C(=O)C1(C)COCCP(=O)(OCOC(=O)OC(C)C)OCOC(=O)OC(C)C (centres unmarked) [Compound 43] | 5.83 | 8.85 | – | –
13 | CCOP(=O)(CCCOCCC1(C)C(=O)c2c(O)c(=O)c(C(=O)NCc3ccc(F)cc3F)cn2CC1OC)OCC (centres unmarked) [Compound 44] | 6.80 | 8.14 | – | –
14 | CCOP(=O)(CCCOCCC1(C)C(=O)c2c(O)c(=O)c(C(=O)NCc3ccc(F)cc3F)cn2CC1OC)OCC (centres unmarked) [Compound 45] | 6.52 | 8.09 | – | –
15 | CCOP(=O)(CCCOCCC1(C)C(=O)c2c(O)c(=O)c(C(=O)NCc3ccc(F)cc3F)cn2CC1OC)OCC (centres unmarked) [Compound 46] | 6.99 | 8.38 | – | –
16 | CCOP(=O)(CCCOCCC1(C)C(=O)c2c(O)c(=O)c(C(=O)NCc3ccc(F)cc3F)cn2CC1OC)OCC (centres unmarked) [Compound 47] | 5.34 | 6.53 | – | –
17 | COC1Cn2cc(C(=O)NCc3ccc(F)cc3F)c(=O)c(O)c2C(=O)C1(C)CCOCCCP(=O)(O)O (centres unmarked) [Compound 48] | – | – | 5.16 | 6.20
18 | COC1Cn2cc(C(=O)NCc3ccc(F)cc3F)c(=O)c(O)c2C(=O)C1(C)CCOCCCP(=O)(O)O (centres unmarked) [Compound 49] | < 5.08 | < 5.98 | – | –
19 | COC1Cn2cc(C(=O)NCc3ccc(F)cc3F)c(=O)c(O)c2C(=O)C1(C)CCOCCCP(=O)(O)O (centres unmarked) [Compound 50] | < 5.08 | < 5.98 | – | –
20 | CCOP(=O)(CCOCCC1(C)C(=O)c2c(O)c(=O)c(C(=O)NCc3ccc(F)cc3F)cn2CC1OC)OCC (centres unmarked) [Compound 54] | 6.65 | 7.96 | – | –
21 | CCOP(=O)(CCOCCC1(C)C(=O)c2c(O)c(=O)c(C(=O)NCc3ccc(F)cc3F)cn2CC1OC)OCC (centres unmarked) [Compound 55] | 6.89 | 8.17 | – | –
22 | CCOP(=O)(CCOCCC1(C)C(=O)c2c(O)c(=O)c(C(=O)NCc3ccc(F)cc3F)cn2CC1OC)OCC (centres unmarked) [Compound 56] | 7.07 | 8.34 | – | –
23 | CCOP(=O)(CCOCCC1(C)C(=O)c2c(O)c(=O)c(C(=O)NCc3ccc(F)cc3F)cn2CC1OC)OCC (centres unmarked) [Compound 57] | 7.08 | 8.15 | – | –
24 | COC1Cn2cc(C(=O)NCc3ccc(F)cc3F)c(=O)c(O)c2C(=O)C1(C)CCOCCP(=O)(O)O (centres unmarked) [Compound 58] | < 5.08 | – | – | < 5.98
25 | COC1Cn2cc(C(=O)NCc3ccc(F)cc3F)c(=O)c(O)c2C(=O)C1(C)CCOCCP(=O)(O)O (centres unmarked) [Compound 59] | 5.37 | < 5.98 | – | –

Row | Compound | pIC50 [1] | pIC50 [2] | pIC50 [3] | pIC50 [4]
26 | COC1Cn2cc(C(=O)NCc3ccc(F)cc3F)c(=O)c(O)c2C(=O)C1(C)CCOCCP(=O)(O)O (centres unmarked) [Compound 60] | 5.29 | 6.12 | – | –
27 | COC1Cn2cc(C(=O)NCc3ccc(F)cc3F)c(=O)c(O)c2C(=O)C1(C)CCOCCP(=O)(O)O (centres unmarked) [Compound 61] | 5.60 | 6.01 | – | –
28 | COC1Cn2cc(C(=O)NCc3ccc(F)cc3F)c(=O)c(O)c2C(=O)C1(C)CCOCCP(=O)(OCOC(=O)OC(C)C)OCOC(=O)OC(C)C (centres unmarked) [Compound 62] | 5.33 | 7.85 | – | –
29 | COC1Cn2cc(C(=O)NCc3ccc(F)cc3F)c(=O)c(O)c2C(=O)C1(C)CCOCCP(=O)(OCOC(=O)OC(C)C)OCOC(=O)OC(C)C (centres unmarked) [Compound 63] | 6.25 | 8.34 | – | –
30 | COC1Cn2cc(C(=O)NCc3ccc(F)cc3F)c(=O)c(O)c2C(=O)C1(C)CCOCCP(=O)(OCOC(=O)OC(C)C)OCOC(=O)OC(C)C (centres unmarked) [Compound 64] | 6.54 | 8.54 | – | –
31 | CCOP(=O)(CCOC1Cn2cc(C(=O)NCc3ccc(F)cc3F)c(=O)c(O)c2C(=O)C1(C)C)OCC (centres unmarked) [Compound 65] | 6.88 | 8.27 | – | –
32 | CCOP(=O)(CCOC1Cn2cc(C(=O)NCc3ccc(F)cc3F)c(=O)c(O)c2C(=O)C1(C)C)OCC (centres unmarked) [Compound 66] | 5.89 | 7.72 | – | –
33 | CC1(C)C(=O)c2c(O)c(=O)c(C(=O)NCc3ccc(F)cc3F)cn2CC1OCCP(=O)(O)O (centres unmarked) [Compound 67] | – | – | 5.37 | 6.17
34 | CC1(C)C(=O)c2c(O)c(=O)c(C(=O)NCc3ccc(F)cc3F)cn2CC1OCCP(=O)(O)O (centres unmarked) [Compound 68] | < 5.10 | < 6.00 | – | –
35 | CC(C)OC(=O)OCOP(=O)(CCOC1Cn2cc(C(=O)NCc3ccc(F)cc3F)c(=O)c(O)c2C(=O)C1(C)C)OCOC(=O)OC(C)C (centres unmarked) [Compound 69] | 7.60 | 8.96 | – | –
36 | CC(C)OC(=O)OCOP(=O)(CCOC1Cn2cc(C(=O)NCc3ccc(F)cc3F)c(=O)c(O)c2C(=O)C1(C)C)OCOC(=O)OC(C)C (centres unmarked) [Compound 70] | 5.70 | 7.89 | – | –
37 | CCOP(=O)(CCCOC1Cn2cc(C(=O)NCc3ccc(F)cc3F)c(=O)c(O)c2C(=O)C1(C)C)OCC (centres unmarked) [Compound 71] | 6.76 | 8.02 | – | –
38 | CCOP(=O)(CCCOC1Cn2cc(C(=O)NCc3ccc(F)cc3F)c(=O)c(O)c2C(=O)C1(C)C)OCC (centres unmarked) [Compound 72] | 6.03 | 7.59 | – | –
39 | CC1(C)C(=O)c2c(O)c(=O)c(C(=O)NCc3ccc(F)cc3F)cn2CC1OCCCP(=O)(O)O (centres unmarked) [Compound 73] | – | – | < 5.08 | 6.08
40 | CC1(C)C(=O)c2c(O)c(=O)c(C(=O)NCc3ccc(F)cc3F)cn2CC1OCCCP(=O)(O)O (centres unmarked) [Compound 74] | < 5.08 | < 5.98 | – | –
41 | CC(C)OC(=O)OCOP(=O)(CCCOC1Cn2cc(C(=O)NCc3ccc(F)cc3F)c(=O)c(O)c2C(=O)C1(C)C)OCOC(=O)OC(C)C (centres unmarked) [Compound 75] | 6.72 | 8.20 | – | –
42 | CC(C)OC(=O)OCOP(=O)(CCCOC1Cn2cc(C(=O)NCc3ccc(F)cc3F)c(=O)c(O)c2C(=O)C1(C)C)OCOC(=O)OC(C)C (centres unmarked) [Compound 76] | 5.56 | 7.35 | – | –
43 | CCOP(=O)(CCOC1Cn2cc(C(=O)NCc3ccc(F)cc3F)c(=O)c(O)c2C(=O)C1(C)CCOC)OCC (centres unmarked) [Compound 77] | 6.89 | 8.26 | – | –
44 | CCOP(=O)(CCOC1Cn2cc(C(=O)NCc3ccc(F)cc3F)c(=O)c(O)c2C(=O)C1(C)CCOC)OCC (centres unmarked) [Compound 78] | 6.24 | 7.77 | – | –
45 | CCOP(=O)(CCOC1Cn2cc(C(=O)NCc3ccc(F)cc3F)c(=O)c(O)c2C(=O)C1(C)CCOC)OCC (centres unmarked) [Compound 79] | 6.75 | 7.82 | – | –
46 | CCOP(=O)(CCOC1Cn2cc(C(=O)NCc3ccc(F)cc3F)c(=O)c(O)c2C(=O)C1(C)CCOC)OCC (centres unmarked) [Compound 80] | 5.56 | 6.42 | – | –
47 | COCCC1(C)C(=O)c2c(O)c(=O)c(C(=O)NCc3ccc(F)cc3F)cn2CC1OCCP(=O)(O)O (centres unmarked) [Compound 81] | 5.67 | 6.18 | – | –
48 | COCCC1(C)C(=O)c2c(O)c(=O)c(C(=O)NCc3ccc(F)cc3F)cn2CC1OCCP(=O)(O)O (centres unmarked) [Compound 82] | < 5.10 | 6.14 | – | –
49 | COCCC1(C)C(=O)c2c(O)c(=O)c(C(=O)NCc3ccc(F)cc3F)cn2CC1OCCP(=O)(O)O (centres unmarked) [Compound 83] | 5.27 | < 6.00 | – | –
